pEC50: −log10 of the molar value.
Tests used:
[1] = system: HCV replicon with a D168V mutation in a 1a-H77 background; assay: transient replicon assay, D168V mutation in 1a-H77 background; format: cell-based, hepatitis C virus (genotype 1a-H77); conditions: Hepatitis C virus, read-out: EC50 in a transient replicon assay with a D168V mutation in a 1a-H77 background
In short: (§1)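 Transient transfection of mutant replicon RNA (1a-H77 with NS2–NS5B, or 1b-N with NS3–NS5B plus E1202G/S2204I) by electroporation into IFN-cured Huh7 cells, plated at 7.5×10^3 cells per well in DMEM with 5% FBS. Serial compound dilutions added 4 h post-transfection (0.5% DMSO final).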

dog PK experiment = conditions: in vivo; for bioavailability: dog PK experiment, 3 mg/kg, read-out: F value (bioavailability); for AUC: dog, dosed at 3 mg/kg
From the text: Those of ordinary skill in the art are aware of the biological assays utililized to test the compounds of the invention. Regarding bioavailability data (F values), a more thorough explanation can be found in Rowland, M and Tozer, T Clinical Pharmacokinetics: Concepts and Applications Lippincott, Williams & Wilkins 3rd ed. 1995, (specifically covered on page 43).

[2] = system: HCV replicon with a D168E mutation in a 1a-H77 background; assay: transient replicon assay, D168E mutation in 1a-H77 background; format: cell-based, hepatitis C virus (genotype 1a-H77); conditions: Hepatitis C virus, read-out: EC50 in a transient replicon assay with a D168E mutation in a 1a-H77 background
In short: as §1

[3] = system: HCV replicon with a R155K mutation in a 1a-H77 background; assay: transient replicon assay, R155K mutation in 1a-H77 background; format: cell-based, hepatitis C virus (genotype 1a-H77); conditions: Hepatitis C virus, read-out: EC50 in a transient replicon assay with a R155K mutation in a 1a-H77 background
In short: as §1

Row | SMILES | pEC50 [1] | bioavailability (dog PK experiment) [%] | AUC (dog PK experiment) [µg·h/mL] | pEC50 [2] | pEC50 [3]
1 | Cc1cc(C(=O)N[C@H]2CCCCC/C=C\[C@@H]3C[C@@]3(C(=O)NS(=O)(=O)C3CC3)NC(=O)[C@@H]3C[C@@H](Oc4nc5cc(F)ccc5nc4C)CN3C2=O)no1 [Example 22, N-((2R,6S,13aS,14aR,16aS,Z)-14a-(cyclopropylsulfonylcarbamoyl)-2-(7-fluoro-3-methylquinoxalin-2-yloxy)-5,16-dioxo-1,2,3,5,6,7,8,9,10,11,13a,14,14a,15,16,16a-hexadecahydrocyclopropa[e]pyrrolo[1,2-a][1,4]diazacyclopentadecin-6-yl)-5-methylisoxazole-3-carboxamide] | 7.30 to 7.60 | > 100 | 54 | 7.70 to 8.52 | 8.00 to 9.00
2 | O=C(N[C@H]1CCCCC/C=C\[C@@H]2C[C@@]2(C(=O)NS(=O)(=O)C2CC2)NC(=O)[C@@H]2C[C@@H](Oc3nc4ccccc4nc3C(F)(F)F)CN2C1=O)c1ccon1 [Example 15, N-((2R,6S,13aS,14aR,16aS,Z)-14a-(cyclopropylsulfonylcarbamoyl)-5,16-dioxo-2-(3-(trifluoromethyl)quinoxalin-2-yloxy)-1,2,3,5,6,7,8,9,10,11,13a,14,14a,15,16,16a-hexadecahydrocyclopropa[e]pyrrolo[1,2-a][1,4]diazacyclopentadecin-6-yl)isoxazole-3-carboxamide] |  | > 100 | 3.3 |  | 
3 | Cc1cc(C(=O)N[C@H]2CCCCC/C=C\[C@@H]3C[C@@]3(C(=O)NS(=O)(=O)C3(C)CC3)NC(=O)[C@@H]3C[C@@H](Oc4nc5c(F)cccc5nc4C)CN3C2=O)no1 [Example 58, N-((2R,6S,13aS,14aR,16aS,Z)-2-(8-fluoro-3-methylquinoxalin-2-yloxy)-14a-(1-methylcyclopropylsulfonylcarbamoyl)-5,16-dioxo-1,2,3,5,6,7,8,9,10,11,13a,14,14a,15,16,16a-hexadecahydrocyclopropa[e]pyrrolo[1,2-a][1,4]diazacyclopentadecin-6-yl)-5-methylisoxazole-3-carboxamide] | > 7.60 |  |  | 7.70 to 8.52 | > 9.00
4 | CC(F)(F)c1nc2ccccc2nc1O[C@@H]1C[C@H]2C(=O)N[C@]3(C(=O)NS(=O)(=O)C4CC4)C[C@H]3/C=C\CCCCC[C@H](NC(=O)c3ccon3)C(=O)N2C1 [Example 3, N-((2R,6S,13aS,14aR,16aS,Z)-14a-(cyclopropylsulfonylcarbamoyl)-2-(3-(1,1-difluoroethyl)quinoxalin-2-yloxy)-5,16-dioxo-1,2,3,5,6,7,8,9,10,11,13a,14,14a,15,16,16a-hexadecahydrocyclopropa[e]pyrrolo[1,2-a][1,4]diazacyclopentadecin-6-yl)isoxazole-3-carboxamide] | 6.60 to 7.30 |  |  | > 8.52 | > 9.00
5 | Cc1onc(C(=O)N[C@H]2CCCCC/C=C\[C@@H]3C[C@@]3(C(=O)NS(=O)(=O)C3(C)CC3)NC(=O)[C@@H]3C[C@@H](Oc4nc5cc(F)ccc5nc4C(C)(F)F)CN3C2=O)c1C [Example 120, N-((2R,6S,13aS,14aR,16aS,Z)-2-(3-(1,1-difluoroethyl)-7-fluoroquinoxalin-2-yloxy)-14a-(1-methylcyclopropylsulfonylcarbamoyl)-5,16-dioxo-1,2,3,5,6,7,8,9,10,11,13a,14,14a,15,16,16a-hexadecahydrocyclopropa[e]pyrrolo[1,2-a][1,4]diazacyclopentadecin-6-yl)-4,5-methylisoxazole-3-carboxamide] | > 7.60 |  |  | > 8.52 | > 9.00
6 | Cc1cc(C(=O)N[C@H]2CCCCC/C=C\[C@@H]3C[C@@]3(C(=O)NS(=O)(=O)C3CC3)NC(=O)[C@@H]3C[C@@H](Oc4nc5cc(F)cc(Br)c5nc4C)CN3C2=O)no1 [Example 98, N-((2R,6S,13aS,14aR,16aS,Z)-2-(5-bromo-7-fluoro-3-methylquinoxalin-2-yloxy)-14a-(cyclopropylsulfonylcarbamoyl)-5,16-dioxo-1,2,3,5,6,7,8,9,10,11,13a,14,14a,15,16,16a-hexadecahydrocyclopropa[e]pyrrolo[1,2-a][1,4]diazacyclopentadecin-6-yl)-5-methylisoxazole-3-carboxamide] | > 7.60 |  |  | 7.70 to 8.52 | 8.00 to 9.00
7 | Cc1cc(C(=O)N[C@H]2CCCCC/C=C\[C@@H]3C[C@@]3(C(=O)NS(=O)(=O)C3(C)CC3)NC(=O)[C@@H]3C[C@@H](Oc4nc5c(F)cccc5nc4C(F)(F)F)CN3C2=O)no1 [Example 115, N-((2R,6S,13aS,14aR,16aS,Z)-2-(8-fluoro-3-(trifluoromethyl)quinoxalin-2-yloxy)-14a-(1-methylcyclopropylsulfonylcarbamoyl)-5,16-dioxo-1,2,3,5,6,7,8,9,10,11,13a,14,14a,15,16,16a-hexadecahydrocyclopropa[e]pyrrolo[1,2-a][1,4]diazacyclopentadecin-6-yl)-5-methylisoxazole-3-carboxamide] | > 7.60 |  |  | > 8.52 | > 9.00
8 | Cc1cnc(C(=O)N[C@H]2CCCCC/C=C\[C@@H]3C[C@@]3(C(=O)NS(=O)(=O)C3CC3)NC(=O)[C@@H]3C[C@@H](Oc4nc5ccccc5nc4C(F)(F)F)CN3C2=O)cn1 [Example 11, (2R,6S,13aS,14aR,16aS,Z)—N-(cyclopropylsulfonyl)-2-(3-(trifluoromethyl)quinoxalin-2-yloxy)-6-(5-methylpyrazine-2-carboxamido)-5,16-dioxo-1,2,3,5,6,7,8,9,10,11,13a,14,14a,15,16,16a-hexadecahydrocyclopropa[e]pyrrolo[1,2-a][1,4]diazacyclopentadecine-14a-carboxamide] | 6.60 to 7.30 |  |  | < 7.00 | 7.60 to 8.00
9 | CC(C)(C)OC(=O)N[C@H]1CCCCC/C=C\[C@@H]2C[C@@]2(C(=O)NS(=O)(=O)C2CC2)NC(=O)[C@@H]2C[C@@H](Oc3nc4cc(F)ccc4nc3C(C)(F)F)CN2C1=O [Example 116, tert-butyl (2R,6S,13aS,14aR,16aS,Z)-14a-(cyclopropylsulfonylcarbamoyl)-2-(3-(1,1-difluoroethyl)-7-fluoroquinoxalin-2-yloxy)-5,16-dioxo-1,2,3,5,6,7,8,9,10,11,13a,14,14a,15,16,16a-hexadecahydrocyclopropa[e]pyrrolo[1,2-a][1,4]diazacyclopentadecin-6-ylcarbamate] | 7.30 to 7.60 |  |  | 7.70 to 8.52 | > 9.00
10 | Cc1cc(C(=O)N[C@H]2CCCCC/C=C\[C@@H]3C[C@@]3(C(=O)NS(=O)(=O)C3(C)CC3)NC(=O)[C@@H]3C[C@@H](Oc4nc5ccccc5nc4C(F)(F)F)CN3C2=O)no1 [Example 17, 5-methyl-N-((2R,6S,13aS,14aR,16aS,Z)-14a-(1-methylcyclopropylsulfonylcarbamoyl)-5,16-dioxo-2-(3-(trifluoromethyl)quinoxalin-2-yloxy)-1,2,3,5,6,7,8,9,10,11,13a,14,14a,15,16,16a-hexadecahydrocyclopropa[e]pyrrolo[1,2-a][1,4]diazacyclopentadecin-6-yl)isoxazole-3-carboxamide] | 7.30 to 7.60 |  |  | 7.70 to 8.52 | > 9.00
11 | CCc1nc2ccc(F)cc2nc1O[C@@H]1C[C@H]2C(=O)N[C@]3(C(=O)NS(=O)(=O)C4CC4)C[C@H]3/C=C\CCCCC[C@H](NC(=O)c3cc(C)on3)C(=O)N2C1 [Example 124, N-((2R,6S,13aS,14aR,16aS,Z)-14a-(cyclopropylsulfonylcarbamoyl)-2-(3-ethyl-7-fluoroquinoxalin-2-yloxy)-5,16-dioxo-1,2,3,5,6,7,8,9,10,11,13a,14,14a,15,16,16a-hexadecahydrocyclopropa[e]pyrrolo[1,2-a][1,4]diazacyclopentadecin-6-yl)-5-methylisoxazole-3-carboxamide] | 6.60 to 7.30 |  |  | 7.30 to 7.70 | 8.00 to 9.00
12 | Cc1onc(C(=O)N[C@H]2CCCCC/C=C\[C@@H]3C[C@@]3(C(=O)NS(=O)(=O)C3CC3)NC(=O)[C@@H]3C[C@@H](Oc4nc5ccccc5nc4C(C)(F)F)CN3C2=O)c1C [Example 6, N-((2R,6S,13aS,14aR,16aS,Z)-14a-(cyclopropylsulfonylcarbamoyl)-2-(3-(1,1-difluoroethyl)quinoxalin-2-yloxy)-5,16-dioxo-1,2,3,5,6,7,8,9,10,11,13a,14,14a,15,16,16a-hexadecahydrocyclopropa[e]pyrrolo[1,2-a][1,4]diazacyclopentadecin-6-yl)-4,5-dimethylisoxazole-3-carboxamide] | 6.60 to 7.30 |  |  | > 8.52 | 8.00 to 9.00
13 | CC(C)(C)OC(=O)N[C@H]1CCCCC/C=C\[C@@H]2C[C@@]2(C(=O)NS(=O)(=O)C2(C)CC2)NC(=O)[C@@H]2C[C@@H](Oc3nc4c(F)cccc4nc3C(F)(F)F)CN2C1=O [Example 114, tert-butyl (2R,6S,13aS,14aR,16aS,Z)-2-(8-fluoro-3-(trifluoromethyl)quinoxalin-2-yloxy)-14a-(1-methylcyclopropylsulfonylcarbamoyl)-5,16-dioxo-1,2,3,5,6,7,8,9,10,11,13a,14,14a,15,16,16a-hexadecahydrocyclopropa[e]pyrrolo[1,2-a][1,4]diazacyclopentadecin-6-ylcarbamate] | 6.60 to 7.30 |  |  | 7.70 to 8.52 | > 9.00

Source: patent US9493506B2 (Enanta Pharmaceuticals, Inc., priority 2010, dated 2016)
